From PMC11969171 (Biomedicine & pharmacotherapy = Biomedecine & …, 2022)
Substitutions are numbered along the chain they refer to. Each block holds one compound with its values, some of them ahead of it.

Tests used:
[1] = tested on: corticostriatal glutamate release; details: rats, local application, ref [64]; cited from earlier work
[2] = target: T1, A1R^G279S (Homo sapiens, UniProt P30542, G279S); assay type: binding; details: saturating concentration of DPCPX (1 µM)
T1 sequence (P30542 1-326 G279S): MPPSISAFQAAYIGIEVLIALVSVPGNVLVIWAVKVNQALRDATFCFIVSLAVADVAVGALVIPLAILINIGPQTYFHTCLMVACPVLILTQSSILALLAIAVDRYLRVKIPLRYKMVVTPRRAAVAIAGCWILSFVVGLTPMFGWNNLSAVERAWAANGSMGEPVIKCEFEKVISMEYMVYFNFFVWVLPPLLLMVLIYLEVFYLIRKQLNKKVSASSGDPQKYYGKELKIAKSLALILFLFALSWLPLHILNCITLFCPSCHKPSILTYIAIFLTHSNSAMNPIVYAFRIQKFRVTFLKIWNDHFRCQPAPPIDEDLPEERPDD

[3] = target: T2, A1R^wt (Homo sapiens, UniProt P30542); assay type: binding; details: saturating concentration of DPCPX (1 µM)
T2 sequence (P30542 1-326): T1 sequence (P30542 1-326 G279S) with S279G

[4] = target: T2, A1R^wt; details: CPA 200 nM
[5] = target: T1, A1R^G279S; details: CPA 200 nM

SMILES: OCCN(CCO)c1nc(N2CCCCC2)c2nc(N(CCO)CCO)nc(N3CCCCC3)c2n1 [dipyridamole]
basal and optogenetic-induced corticostriatal glutamate release [1]: significant decrease

displacement of CA200634 binding [2]: displaced | displacement of CA200634 binding [3]: displaced
SMILES: CCCn1c(=O)c2[nH]c(C3CCCC3)nc2n(CCC)c1=O [DPCPX, 8-cyclopentyl-1,3-dipropylxanthine]

functional coupling to Gα12/13, Gαs, β-arrestin2 or GRK2 [4]: No functional coupling | time to peak of NL-generated signal ([4]; Gαi-LgBiT or Gαq-LgBiT, decline to basal after 1 h): 10 min | functional coupling to Gα12/13, Gαs, β-arrestin2 or GRK2 [5]: No functional coupling
SMILES: OC[C@H]1O[C@@H](n2cnc3c(NC4CCCC4)ncnc32)[C@H](O)[C@@H]1O [CPA, N6-cyclopentyladenosine]
